How the values were obtained:
[1] = molecular target: T1, human MPC1L/MPC2 hetero-dimer (Homo sapiens, UniProt O95563+P0DKB6); assay: Inhibition of [14C]-pyruvate homo-exchange in MPC1L/MPC2 proteoliposomes; type: biochemical; details: for Inhibition of pyruvate transport, residual activity compared to control: compound 100 μM; for Inhibition of pyruvate transport, residual activity compared to control / IC50: MPC1L/MPC2 proteoliposomes; for IC50: 50 μM [14C]-pyruvate homo-exchange, mean ± s.d., read-out: IC50 of pyruvate transport inhibition; for Inhibitory potency for human MPC1L/MPC2 compared to yeast Mpc1/Mpc3: human vs yeast protein, yeast values ref 15
T1 construct: eight-histidine tag (C, cleaved yes); TEV protease cleavage site (part stays on MPC2 after digestion) (C, cleaved yes); made in house; host or cells: Saccharomyces cerevisiae SHY15 (mpc triple deletion strain), purified from mitochondria
T1 sequence (P0DKB6 2-136): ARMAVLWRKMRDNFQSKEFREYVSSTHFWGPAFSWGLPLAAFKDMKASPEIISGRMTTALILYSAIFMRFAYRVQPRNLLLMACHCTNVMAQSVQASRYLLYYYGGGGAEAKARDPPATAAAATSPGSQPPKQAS
T1 sequence (O95563 2-127): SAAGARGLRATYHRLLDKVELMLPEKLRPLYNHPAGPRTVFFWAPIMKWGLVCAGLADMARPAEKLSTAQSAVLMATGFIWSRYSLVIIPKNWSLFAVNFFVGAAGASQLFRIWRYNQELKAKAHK
Protocol: Egg L-α-phosphatidylcholine 99% (w/v) (Avanti Polar Lipids, AL, USA) and TOCL were mixed in a 20:1 (w/w) ratio, dried under a stream of nitrogen and washed once with methanol before being dried again. Lipids were hydrated in 20 mM Tris–HCl, pH 8.0, 50 mM NaCl to a concentration of 12 mg/mL. Unlabeled pyruvate was added as a freshly made concentrated stock at a final concentration of 5 mM for internalisation. Lipids were solubilised with 1.2% (v/v) pentaethylene glycol monodecyl ether (Sigma) and freshly purified protein was added at a lipid-to-protein ratio of 250:1 (w/w). Samples were incubated on ice for 5 min, then liposomes were formed by the step-wise removal of pentaethylene glycol monodecyl ether by five additions at 20 min intervals of 60 mg Bio-Beads SM-2 (Bio-Rad, Watford, UK) with gentle mixing at 4 °C. A final addition of 480 mg Bio-Beads was incubated with the samples overnight. Proteoliposomes were first separated from the Bio-Beads by passage through empty spin columns (Bio-Rad, Watford, UK) and subsequently pelleted at 120,000×g for 60 min. The proteoliposomes were resuspended with a thin needle in 150 μL of their supernatant after the rest of the supernatant was removed.
The time course of pyruvate homo-exchange was measured at room temperature. The transport was initiated by diluting proteoliposomes 200-fold into external buffer, 20 mM MES, pH 6.4, 50 mM NaCl, containing 50 μM [^14C]-pyruvate (500,000 dpm, Perkin Elmer, MA, USA). The reaction (0–30 s) was terminated by rapid dilution into 8 volumes of ice-cold internal buffer (20 mM Tris–HCl, pH 8.0, 50 mM NaCl), followed by rapid filtration through cellulose nitrate 0.45 μm filters (Millipore, Gillingham, UK) and washing with an additional 8 volumes of buffer. The filters were dissolved in Ultima Gold scintillation liquid (Perkin Elmer, MA, USA) and the radioactivity was counted with a Perkin Elmer Tri-Carb 2800 RT liquid scintillation counter. […] The data analysis was performed with non-linear regression fittings using GraphPad Prism 7.0d ([Inhibitor] vs response, variable slope). The specific uptake rates were calculated based on the amount of protein used in reconstitutions, as estimated from bicinchoninic acid assay. The biological repeats represent independent proteoliposome preparations using protein from independent purifications.

[2] = molecular target: T2, human MPC1L/MPC2 complex (Homo sapiens, UniProt O95563+P0DKB6); assay: CPM thermostability shift assay, purified MPC1L/MPC2; type: binding; details: for ΔTm at 100 µM: read-out: ∆Tm, CPM assay (thermal shift compared to no-ligand control); for Tm, CPM assay: unliganded 51.3 ± 0.2, mean ± s.d., 3 biological repeats
T2 construct: eight-histidine tag (C, cleaved yes); TEV protease cleavage site (part stays on MPC2 after digestion) (C, cleaved yes); made in house; host or cells: Saccharomyces cerevisiae SHY15 (mpc triple deletion strain), purified from mitochondria
T2 sequence (P0DKB6 2-136): T1 sequence (P0DKB6 2-136)
T2 sequence (O95563 2-127): T1 sequence (O95563 2-127)
Protocol: (§1) The assessment of ligand binding was performed via shifts in protein thermostability upon binding using thermal denaturation on a rotary quantitative PCR (qPCR) instrument (Qiagen Rotor-Gene Q 2plex HRM, Venlo, Netherlands), as previously described. In this method, cysteine residues, buried within the protein structure, become solvent-exposed during denaturation in a temperature ramp and then react with 7-diethylamino-3-(4-maleimidophenyl)-4-methylcoumarin (CPM) to form fluorescent-adducts. Briefly, a CPM working solution was prepared by diluting the CPM stock (5 mg/mL in dimethyl sulfoxide) 50-fold into assay buffer (20 mM Tris–HCl, pH 7.4, 150 mM NaCl, 0.1% (w/v) LMNG, 0.1 mg/mL TOCL) and incubated for 10 min at room temperature. In each analysis, performed in duplicates or triplicates, 3 μg of purified MPC was diluted into 45 μL of assay buffer containing the desired concentration of the inhibitor then incubated for 10 min on ice. Next, 5 μL of the CPM working solution were added. Samples were incubated on ice for an additional 10 min then subjected to a temperature ramp of 5.6 °C/min. The fluorescence increase was monitored with the HRM channel of the instrument (excitation at 440–480 nm, emission at 505–515 nm). Unfolding profiles were analysed with the Rotor-Gene Q software 2.3, and the peaks of their derivatives were used to determine the apparent melting temperature.

[3] = molecular target: T2, human MPC1L/MPC2 complex; assay: nano-DSF thermostability shift assay, purified MPC1L/MPC2; type: binding; details: inhibitor 100 μM; for Tm, nano-DSF: unliganded 51.9 ± 0.1, mean ± s.d., 2 biological repeats
Protocol: Ligand binding was also assessed using dye-free nano differential scanning fluorimetry (nano-DSF) to monitor fluorescence changes due to altered environments of tryptophan and tyrosine residues during unfolding. Protein samples in buffer containing 20 mM Tris–HCl pH 7.4, 150 mM NaCl, 0.1% (w/v) LMNG, 0.1 mg/mL TOCL, in the presence or absence of the indicated concentrations of small molecule inhibitors, were loaded into capillary tubes, and a temperature ramp of 5 °C/min was applied. The intrinsic fluorescence was measured using the NanoTemper Prometheus NT.48 (NanoTemper, München, Germany).

[4] = molecular target: T3, MPC1/MPC2 hetero-dimer (Homo sapiens, UniProt O95563+Q9Y5U8); assay: CPM thermostability shift assay, MPC1/MPC2; type: binding; details: 100 μM inhibitor
T3 construct: eight-histidine tag (C, cleaved yes); Factor Xa cleavage site (C, cleaved yes); made in house; host or cells: Saccharomyces cerevisiae SHY15 (mpc triple deletion strain), purified from mitochondria
T3 sequence (Q9Y5U8 2-109 limits assumed): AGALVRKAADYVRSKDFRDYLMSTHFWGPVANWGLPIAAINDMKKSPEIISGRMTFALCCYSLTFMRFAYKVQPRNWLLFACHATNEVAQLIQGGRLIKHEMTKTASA
T3 sequence (O95563 2-127 limits assumed): T1 sequence (O95563 2-127)
Protocol: as §1

[5] = molecular target: T4, MPC2 protomer (Homo sapiens, UniProt O95563); assay: CPM thermostability shift assay, individually purified MPC2; type: binding; details: 100 μM inhibitor
T4 construct: Factor Xa or TEV cleavage site followed by eight-histidine tag (C); made in house
T4 sequence (O95563 1-127): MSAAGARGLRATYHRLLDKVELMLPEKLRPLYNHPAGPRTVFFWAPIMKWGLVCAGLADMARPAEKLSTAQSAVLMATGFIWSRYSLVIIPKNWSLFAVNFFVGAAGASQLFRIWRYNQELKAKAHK
Protocol: as §1

[6] = molecular target: mammalian MPCs; details: isolated mitochondria; cited from earlier work
[7] = molecular target: T5, recombinant human MPC1L/MPC2 (Homo sapiens, UniProt O95563+P0DKB6); assay: Electrospray mass spectrometry of MPC1L/MPC2 after reaction with inhibitors or sulfhydryl modifiers; details: for Mass difference (observed vs calculated), MPC1L (2–136) / Mass difference (observed vs calculated), MPC1L (5–136) / Mass difference (observed vs calculated), MPC2 (2–137): MPC1L/MPC2 after reaction with compound; for Covalent modification of MPC protomers (molecular mass change): folded MPC1L/MPC2 incubated with compound, ESI-MS
T5 construct: MPC1L (2–136); MPC2 (2–137); eight-histidine tag (C, cleaved yes); TEV protease cleavage site (part stays on MPC2 after digestion) (C, cleaved yes); made in house; host or cells: Saccharomyces cerevisiae SHY15 (mpc triple deletion strain), purified from mitochondria
T5 sequence (P0DKB6 2-136 limits assumed): T1 sequence (P0DKB6 2-136)
T5 sequence (O95563 2-127 limits assumed): T1 sequence (O95563 2-127)
Protocol: Different MPC inhibitors (Table1) or sulfhydryl reagents were first incubated with MPC1L/MPC2 in a folded state, then the protein molecular masses were measured by electrospray mass spectrometry. The MPC subunits (10 μg) were resolved by reverse-phase HPLC on a PLRP-S column (1.0 mm i.d. X 75 mm; VARIAN) using a gradient of 2-propanol in a solvent system compatible with the recovery of membrane proteins (Carroll et al., 2009). The eluate (50 μL/min) was introduced into a QTRAP4000 (SCIEX) mass spectrometer operating in positive ion single MS mode. The instrument was scanned from 700 m/z to 2300 m/z after calibration with ions from a mixture of 1.0 μM of myoglobin and 1.5 μM trypsinogen. Molecular masses were obtained by reconstruction of the spectra of multiply charged ions using PeakView (SCIEX).

SMILES | Inhibition of pyruvate transport, residual activity compared to control [1] | ΔTm at 100 µM ([2]; inhibitor 100 μM) [°C] | Tm, CPM assay ([2]; inhibitor 100 μM) [°C] | ∆Tm, nano-DSF [3] [°C] | Tm, nano-DSF [3] [°C] | Thermostability shift of MPC1/MPC2 [4] | Thermostability shift of MPC2 alone [5] | IC50 [1] [µM] | Inhibitory potency for human MPC1L/MPC2 compared to yeast Mpc1/Mpc3 [1] | Thermal shift in the CPM assay ([2]; compound 1 mM) | ∆Tm, CPM assay (thermal shift compared to no-ligand control) ([2]; inhibitor 100 μM) | ∆Tm, nano-DSF ([3]; listed as lonidamine) | Ki [6] [µM] | Mass difference (observed vs calculated), MPC1L (2–136) [7] [Da] | Mass difference (observed vs calculated), MPC1L (5–136) [7] [Da] | Mass difference (observed vs calculated), MPC2 (2–137) [7] [Da] | Covalent modification of MPC protomers (molecular mass change) [7]
N#CC(=Cc1ccc(O)cc1)C(=O)O [CHC, α-cyano-4-hydroxy-cinnamate] | completely inhibited | 8.3 ± 0.6 | 59.6 ± 0.4 | 7.0 ± 0.5 | 58.9 ± 0.4 | strong shifts | neither CHC nor zaprinast showed any shift | – | – | – | – | – | – | – | – | – | –
O=C(O)c1nn(Cc2ccc(Cl)cc2Cl)c2ccccc12 [Lonidamine, lonidamine] | – | -0.2 ± 0.5 | 51.1 ± 0.3 | 0.6 ± 0.3 | 52.5 ± 0.2 | – | – | 4.6 ± 1.3 | much higher potencies | negative thermal shift | No thermal shifts | No thermal shifts | 2.5 | – | – | – | –
N#CC(=Cc1cn(-c2ccccc2)c2ccccc12)C(=O)O [UK5099, α-cyano-β-(1-phenylindol-3-yl)-acrylate] | completely inhibited | 11.2 ± 1.1 | 62.5 ± 0.9 | 9.2 ± 0.7 | 61.1 ± 0.6 | – | – | – | – | – | – | – | ~0.05 | 0.6 | 0.6 | 1.7 | no molecular mass differences
CCCOc1ccccc1-c1nc2nn[nH]c2c(=O)[nH]1 [Zaprinast] | completely inhibited | 7.5 ± 0.6 | 58.8 ± 0.4 | 6.3 ± 0.4 | 58.2 ± 0.3 | strong shifts | neither CHC nor zaprinast showed any shift | 0.321 ± 0.042 | much higher potencies | – | – | – | – | 0.4 | 0.3 | 1.5 | no molecular mass differences
